Results as given in patent publication US20260317367A1, “SALTS INCLUDING CRYSTALLINE SALTS OF 25-HYDROXY-CHOLEST-5-EN-3-SULFATE AND METHODS FOR PREPARING SAME” (Durect Corporation, priority 2022, published 2026).
Structures can show the parent of a compound that is named as a salt.

What was measured:
Assay type in all cases: physicochemical
[1] = Appearance (color, clumping, flowability) of stored 25HC3S salts
[2] = Final pH of the solubility sample solutions in aqueous media; details: for pH of the solubility sample, 0.9% Sodium Chloride: 0.9% sodium chloride (blank 5.8); for pH of the solubility sample, 5% Dextrose: 5% dextrose (blank 4.7); for pH of the solubility sample, FaSSGF: FaSSGF (blank 1.5, 1.6); for pH of the solubility sample, FaSSIF: FaSSIF (blank 6.5, 6.5); for pH of the solubility sample, FeSSIF: FeSSIF (blank 4.9, 5.0); for pH of the solubility sample, Water: water (blank 6.3)
Summary of the method: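 Undiluted HPLC assay of centrifuged (12000 rpm, 12–15 min) supernatants from aqueous 25HC3S salt suspensions. These suspensions were kept with excess solid and shaken one day at room temperature, 210 motions/min.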

[3] = Solubility of 25HC3S salts after one day at room temperature (HPLC, as free acid); details: one day; for Solubility in FaSSGF (in words) / Solubility in FaSSIF (in words) / Solubility in FeSSIF (in words) / Solubility in saline / 0.9% sodium chloride (in words): room temperature
Summary of the method: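 HPLC quantified the clear supernatant after centrifugation, with organic-solvent samples diluted in water:MeOH 95:5 and aqueous ones undiluted; results are mg/mL as free acid (LOD 0.0007 mg/mL). Each salt was first equilibrated as a suspension with excess solid for one day on a room-temperature shaker.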

[4] = Hausner ratio and compressibility index of 25HC3S salts; details: for Compressibility Index: Table C3 heads this index in %
Summary of the method: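 Powder poured into a 5 mL graduated cylinder to about 5.0 mL (Vo), tapped 200 then 100 more times on a hard surface; final volume Vf recorded after 300 taps. Compressibility index and Hausner ratio calculated from Vo and Vf; flow character classed per USP <1174>.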

[5] = Solid-state chemical stability of 25HC3S salts at 2-8° C., 60° C. and 80° C. (HPLC assay and degradation products); details: for % Impurities, Total / % Impurities, 25-HC: ND = Not Detected; for % Impurities, 25-HC: 25-Hydroxy-Cholesterol; for % Recovery: vs 2-8° C.
Summary of the method: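 Crystalline 25HC3S salts (~25 mg powder per vial) stored at 2-8° C. or 80° C., pulled at 3 and 6 weeks; some 3-week 2-8° C. vials moved to 60° C. for 1 week. Dissolved in 100% methanol (sonication/vortexing, centrifugation or dilution), then HPLC against 25HC3S sodium standards (0.75-1.25 mg/mL) for assay and degradants.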

[6] = Overall rank order of powder flowability (angle of repose and Hausner ratio); details: for Powder flowability, overall (in words): angle of repose and compressibility index/Hausner ratio combined; for Angle of Repose Rank Order / Hausner Ratio Rank Order / Overall Rank Order (Total Score): lower is better flow; for Overall Rank Order (Total Score): sum of both ranks
Source text: Table C5 was generated by adding the relative rank order of the 25HC3S salts for angle of repose and Hausner ratio results, and creating an Over All Rank Order of the salts powder flowability. The salts with the lower overall rank order score had better powder flowability.

[7] = 2-8° C., 3 wk, listed as 25HC3S meglumine
[8] = 80° C., 3 wk, listed as 25HC3S meglumine
[9] = listed as crystalline 25HC3S meglumine
[10] = 60° C., 1 wk, listed as 25HC3S meglumine
[11] = 2-8° C., 3 wk, listed as 25HC3S tromethammonium
[12] = 80° C., 3 wk, listed as 25HC3S tromethammonium
[13] = listed as 25HC3S tromethammonium
[14] = 80° C., 5 wk, listed as 25HC3S tromethammonium
[15] = 80° C., 5 wk, 50400 min, listed as 25HC3S tromethammonium

Structure (SMILES): CC(CCCC(C)(C)O)C1CCC2C3CC=C4CC(OS(=O)(=O)O)CCC4(C)C3CCC12C (stereo not drawn) [Salt #7]
- Appearance [1, 7]: White, free flowing powder, no clumping
- Appearance ([1]; 60° C., 1 wk (after 3 weeks at 2-8° C.), listed as 25HC3S meglumine): White, free flowing powder, no clumping
- Appearance after 3 weeks at 80° C. ([1]; 80° C., 3 weeks): completely burned
- Appearance [1, 8]: Light brown, partially melted material
- pH of the solubility sample, 0.9% Sodium Chloride ([2]; listed as 25HC3S meglumine): 7.2
- pH of the solubility sample, 5% Dextrose ([2]; listed as 25HC3S meglumine): 7.2
- pH of the solubility sample, FaSSGF [2]: 1.6
- pH of the solubility sample, FaSSIF ([2]; listed as 25HC3S meglumine): 6.5
- pH of the solubility sample, FeSSIF [2]: 5.0
- pH of the solubility sample, Water ([2]; listed as 25HC3S meglumine): 8.5
- Solubility in FaSSGF (in words) [3]: high solubility
- Solubility in FaSSGF (in words) [3, 9]: relatively high solubility
- Solubility in FaSSIF (in words) [3]: high solubility
- Solubility in FaSSGF ([3]; Fasted State Simulated Gastric Fluid, pH 1.6, room temperature, as free acid, LOD 0.0007 mg/mL, 1440 min): 48 µg/mL
- Solubility in FeSSIF (in words) [3]: high solubility
- Solubility in saline / 0.9% sodium chloride (in words) [3, 9]: low solubility
- Compressibility Index ([4]; listed as 25HC3S meglumine): 36
- Hausner Ratio ([4]; listed as 25HC3S meglumine): 1.56
- Assay ([5]; 2-8° C., 3 wk, 30240 min, listed as 25HC3S meglumine): 98.3 % w/w
- % Impurities, Total [5, 7]: 0.9%
- % Impurities, 25-HC [5, 10]: 0.4%
- Physical and chemical solid-state stability (comments) ([5]; 60° C., 1 week, listed as 25HC3S Meglumine): Stable after 1 week at 60 °C
- Assay ([5]; 60° C., 1 wk (after 3 weeks at 2-8° C.), 10080 min, listed as 25HC3S meglumine, 10080 min): 104.6 % w/w
- % Recovery of 2-8° C./3 wk vs 60° C./1 wk ([5]; 60° C., 1 wk, 10080 min, listed as 25HC3S meglumine): 106.4%
- % Impurities, Total [5, 10]: 1.7%
- Physical and chemical solid-state stability (comments) ([5]; 80° C., 3 weeks, listed as 25HC3S Meglumine): totally decomposed after 3
- % Recovery ([5]; 80° C., 3 wk, 30240 min, listed as 25HC3S meglumine, 30240 min): 0.0%
- Assay ([5]; 80° C., 3 wk, 30240 min, listed as 25HC3S meglumine): 0.0 % w/w
- % Impurities, Total [5, 8]: 100.3%
- Stability after 1 week at 60° C. (in words) ([5]; solid state, 60° C., 1 week (after 3 weeks at 2-8° C.)): stable
- Stability after 3 weeks at 80° C. (in words) ([5]; solid state, 80° C., 3 weeks): totally decomposed
- Powder flowability, overall (in words) ([6]; listed as meglumine): next group
- Angle of Repose Rank Order ([6]; listed as 25HC3S meglumine): 5
- Hausner Ratio Rank Order ([6]; listed as 25HC3S meglumine): 12
- Overall Rank Order (Total Score) ([6]; listed as 25HC3S meglumine): 17

Structure (SMILES): CC(CCCC(C)(C)O)C1CCC2C3CC=C4CC(OS(=O)(=O)O)CCC4(C)C3CCC12C (stereo not drawn) [Salt #8]
- Appearance [1, 11]: White, free flowing powder with clumping
- Appearance ([1]; 2-8° C., 5 wk): White, free flowing powder with clumping
- Appearance [1, 12]: White, free flowing powder with clumping
- Appearance ([1]; 80° C., 5 wk): White, free flowing powder with clumping
- pH of the solubility sample, 0.9% Sodium Chloride [2, 13]: 7.2
- pH of the solubility sample, 5% Dextrose [2, 13]: 7.2
- pH of the solubility sample, FaSSGF [2]: 1.6
- pH of the solubility sample, FaSSIF [2, 13]: 6.5
- pH of the solubility sample, FeSSIF [2, 13]: 4.9
- pH of the solubility sample, Water [2, 13]: 8.4
- Solubility in FaSSGF (in words) [3]: high solubility
- Solubility in FaSSIF (in words) [3]: high solubility
- Solubility in FeSSIF (in words) [3]: high solubility
- Solubility in saline / 0.9% sodium chloride (in words) ([3]; listed as crystalline 25HC3S tromethammonium): low solubility
- Compressibility Index [4, 13]: 28
- Hausner Ratio [4, 13]: 1.39
- Assay ([5]; 2-8° C., 3 wk, 30240 min, listed as 25HC3S tromethammonium): 99.4 % w/w
- % Impurities, Total [5, 11]: 0.9%
- Assay ([5]; 2-8° C., 5 wk, 50400 min, listed as 25HC3S tromethammonium): 105.4 % w/w
- % Impurities, Total ([5]; 2-8° C., 5 wk, listed as 25HC3S tromethammonium): 0.7%
- % Impurities, 25-HC [5, 11]: 0.1%
- % Impurities, 25-HC [5, 12]: 0.1%
- % Impurities, 25-HC [5, 14]: 2.1%
- Stressed stability at 80° C. (in words) ([5]; 80° C.): good, stressed stability
- Physical and chemical solid-state stability (comments) ([5]; 80° C., 3 weeks, listed as 25HC3S Tromethammonium): Stable after 3 weeks at 80 °C
- % Recovery ([5]; 80° C., 3 wk, 30240 min, listed as 25HC3S tromethammonium, 30240 min): 99.8%
- Assay ([5]; 80° C., 3 wk, 30240 min, listed as 25HC3S tromethammonium): 99.2 % w/w
- % Impurities, Total [5, 12]: 1.2%
- % Recovery, 2-8° C./5 wk vs 80° C./5 wk [5, 15]: 91.1%
- Assay [5, 15]: 96.0 % w/w
- % Impurities, Total [5, 14]: 12.3%
- Stability after 3 weeks at 80° C. (in words) ([5]; solid state, 80° C., 3 weeks): stable
- degraded at 840 h ([5]; solid state, 80° C., 5 weeks, read-out: Degradation based on % Recovery to the 2-8° C. control samples): ~9%
- Powder flowability, overall (in words) ([6]; listed as tromethammonium): next group
- Angle of Repose Rank Order [6, 13]: 8
- Hausner Ratio Rank Order [6, 13]: 6
- Overall Rank Order (Total Score) [6, 13]: 14
